The text below walks through data of US10821148B2, “Pharmaceutical composition for treating or alleviating an autoimmune disease and/or complication thereof and/or nephritis and method for treating or alleviating an autoimmune disease and/or complication thereof and/or nephritis” (Industrial Technology Research Institute, priority 2016, dated 2020).

Test [1] concerns MCP-1. Briefly: Lipopolysaccharide (LPS)-induced acute inflammation in mice, MCP-1. The test is classed as in vivo. The conditions noted are these: plasma, 1.5 hours after 1 mg/kg LPS IP, BALB/c mice. An excerpt:
(§1) 5. Method 5: Model of Lipopolysaccharide (LPS)-Induced Acute Inflammation in Mice
(§2) 6-8 weeks old male BALB/c mice were purchased from BioLASCO Taiwan Co., Ltd. On the day that the animals entered, the mice were marked, separated into cages, and weighed. Then, the mice were quarantined for one week, and the breeding conditions meet the standards of the National Laboratory Animal Center (Taiwan). During the quarantine, the motility and environmental adaptability of the mice were observed. If the body weights of the mice increased normally, the mice were moved to the breeding region to await the implementation of the experiment.
(§3) Illumination for the breeding region was automatically controlled for 12-hr light-dark cycle, and the temperature was controlled at 23±2° C. The animals were free to obtain sufficient food and water. This strain of animals has had abundant basic reference information and data, and can be suitable for a functional evaluation test for inflammation, and the experimental method had been approved by Institutional Animal Care and Use Committees (IACUC) in the Industrial Technology Research Institute.
(§4) 5.2 Treatment of the Mice
(§5) Before the experiment, the mice were weighed and grouped to make the average body weight for each group has no obvious difference, and the clinical symptoms of the mice were recorded. Two to four hours before the experiment, the mice were fasting, but water was still regularly provided. At a specific time before or after being stimulated by lipopolysaccharides (LPS), the mice were administered a drug to be tested through oral administration, intraperitoneal injection (IP) or intravenous injection (IV), and after the administration, the clinical symptoms of the mice were observed and recorded. The mice of the control group were administered the same volume of solvent. The mice were stimulated by 1 mg/kg lipopolysaccharides (0.25 ml/mouse) through intraperitoneal injection (IP), and the clinical symptoms of the mice were observed and recorded.
After being stimulated by lipopolysaccharides for 1.5 hours, the mice were euthanized with excess CO2, and then whole blood of the mice was obtained through intra-cardiac puncture.
The whole blood of the mice was centrifuged at 6000 rpm at 4° C. for 10 minutes. After that, plasma was collected, and determinations of TNF-α, IL-6 and MCP-1 secretion amounts in the plasma were performed.
5.3 Determinations of TNF-α, IL-6 and MCP-1 Secretion Amounts
TNF-α, IL-6 and MCP-1 secretion amounts in the plasma were analyzed according to the analysis steps of Duoset® ELISA kit, and the steps are summarized as follows:
At room temperature, a capture antibody mixture solution was added to an ELISA 96 well plate (100 μl/well) to cover the surface of the ELISA 96-well plate. […]

Test [2] concerns IL-17 secretion in peripheral blood leukocytes (PBLs). Briefly: Anti-IL-17 secretion screening, peripheral blood leukocyte (PBL) platform. The test is classed as cell-based. The conditions noted are these: rat PBL, PMA + ionomycin, 48 hours. As to the method:
2. Method 2: Anti-IL-17 Secretion Drug Screening Through a Peripheral Blood Leukocyte (PBL) Platform
Blood of SD rat was obtained through saphenous vein sampling. The rat blood was placed in a centrifuge tube containing EDTA (final concentration was 2 mg/ml) and mixed well, and then 4-fold volume of ACK buffer was added to the centrifuge tube to lyse red blood cells. The above-mentioned centrifuge tube was placed in a 37° C. water bath for 5 minutes, and 4 folds volume of PBS buffer was added to the centrifuge tube and the centrifuge tube was centrifuged at a speed of 3000 rpm for 5 minutes, and the supernatant was removed. After that, the steps for lysing red blood cells were repeated twice and an appropriate volume of cell culture medium was added to the centrifuge.
The cells was implanted to a 96-well plate (2×10^5 cells/well), and an appropriate concentration of a drug to be tested was added therein (10 μl/well) and evenly mixed. Next, the 96-well plate was placed in an incubator at 37° C. with 5% CO2 for 1 hour. After that, the stimuli, phorbol-12-myristate-13-acetate (PMA) (final concentration was 30 ng/ml), and ionomycin (final concentration was 1 μg/ml) were added to the 96-well plate. After being evenly mixed, the 96-well plate was placed in an incubator for 48 hours.
After 48 hours of culturing, the 96-well plate was centrifuged at 3000 rpm for 5 minutes to let the cells precipitate and the supernatant (cell-cultured medium) was transferred to a new 96-well plate (about 155 μl/well).
After the cell-cultured medium in the new 96 well plate was 2-4 fold diluted, a rat IL-17 ELISA kit (eBioscience, 88-7170) was used to determine IL-17 content thereof.
For both of cell viability assay and IL-17 content assay, the result of the group adding phorbol-12-myristate-13-acetate (PMA) and ionomycin was set as 100%, and secretion of IL-17 was shown by percentage.

Test [3] deals with TNF-α. Kind of test: Lipopolysaccharide (LPS)-induced acute inflammation in mice, TNF-α. The test is classed as in vivo. The note with it: plasma, 1.5 hours after 1 mg/kg LPS IP, BALB/c mice.
Text: as §1
6-8 weeks old male BALB/c mice were purchased from BioLASCO Taiwan Co., Ltd. On the day that the animals entered, the mice were marked, separated into cages, and weighed. Then, the mice were quarantined for one week, and the breeding conditions meet the standards of the National Laboratory Animal Center (Taiwan). During the quarantine, the motility and environmental adaptability of the mice were observed. If the body weights of the mice increased normally, the mice were moved to the breeding region to await the implementation of the experiment. […]
as §5, with “recorded. […]” for “recorded. Two to four hours before the experiment, the mice were fasting, but water was still regularly provided.”, “recorded. […]” for “recorded. The mice of the control group were administered the same volume of solvent.”, “recorded. […]” for “recorded.”

Test [4] deals with IL-17 secretion in EL4 cells. Kind of test: Anti-IL-17 secretion screening, platform of EL4 cells. The conditions noted are these: PMA + ionomycin, 18 hours. The test is classed as cell-based, mouse. The procedure:
8. Method 8: Anti-IL-17 Secretion Drug Screening Through a Platform of EL4 Cells
The EL4 cells were seeded into a 96-well plate (1×10^5 cells/well), and an appropriate concentration of a drug to be tested was added therein (10 μl/well) and evenly mixed.
Next, the 96-well plate was placed in an incubator at 37° C. with 5% CO2 for 1 hour. After that, the stimuli, phorbol-12-myristate-13-acetate (PMA) (final concentration was 10 ng/ml), and ionomycin (final concentration was 5 ng/ml) were added to the 96-well plate. After being evenly mixed, the 96-well plate was placed in an incubator for 18 hours.
After 18 hours of culturing, the 96-well plate was centrifuged at 1200 rpm for 5 minutes to let the cells precipitate and the supernatant (cell-cultured medium) was transferred to a new 96-well plate (about 155 μl/well).
The cell-cultured medium in the new 96-well plate was 2-4 fold diluted and the IL-17 concentration was determined by mouse IL-17 ELISA kit (R&D, DY421E).
For both of cell viability and IL-17 content assays, the results of the group with phorbol-12-myristate-13-acetate (PMA) and ionomycin were set as 100%, and the secretion of IL-17 was expressed by percentage.

For test [5], the system named is NZBWF1/J mice. The test is classed as in vivo. The conditions noted are these: for Survival rate (%): 50 mg/kg, NZBWF1/J mice. From the text:
6. Method 6: NZBWF Autoimmune Animal Model for Systemic Lupus Erythematosus (SLE)
NZBWF1/J female mice were purchased from The Jackson Laboratory, U.S.A, and after animal quarantine, the mice were fed to an appropriate age (about 16 to 25 weeks old).
Before the experiment, mice were randomly grouped according to the antibody to double stranded DNA (dsDNA) value of sera, then the mice were started to administrate test articles. Mice were administrated 5 days a week, and after 10-18 weeks of continuous administration, the mice were sacrificed. During the administration, body weight change was recorded every week, mice urine were collected every 1 to 2 week by gently pressing the abdomens of the mice and the urinary protein content (mg/dl) was determined by test strips and a protein quantitative kit.
After the experiment was completed, the urine was collected and the whole blood of the mice was obtained through intra-cardiac puncture. After that, kidneys of the mice were exteriorized and weighed. The appearance and pathological changes of kidneys were recorded, and the kidneys were preserved in 10% neutral formalin for pathological examinations. The pathological score was determined according to the literature, Shackelford et al. Toxicol. Pathol. 30: 93-96, and shown by a score of 0 to 5: a score of 0 represents not present; a score of 1 represents minimal (<1%); a score of 2 represents slight (1-25%); a score of 3 represents moderate (26-50%); a score of 4 represents moderate/severe (51-75%), and a score of 5 represents severe (76-100%).
6.2 Determination of Protein Content in Urine
The abdomen (bladder) of the mouse was gently pressed every 1 to 2 week to make the mouse urinate and the urine was collected in a 1.5 ml centrifuge tube, the protein content (mg/dl) in the urine was determined by urine test strip. The test strip was moistened with the urine and stood for 1 minute, and the protein content was determined by the color shown by the test strip. […] If the color shown by the test strip is between two color regions, the urinary protein content is determined by the mean of the values represented by the two regions. […]
The contents of blood urea nitrogen (BUN) and creatinine (CRE) in the serum were determined by FUJI DRI-CHEM 4000i biochemistry analyzer, and the steps are summarized as follows:
Before the experiment, the urea nitrogen and creatinine test strips and the serum to be tested were placed at room temperature to back to room temperature. After that, according to the instructions of the analyzer, 10 μl of serum was added to the central portion of the test strip (if the value exceeded the detectable range, the serum was appropriately diluted with sterilized water), and then determined. […]

Test [6] relates to IL-6. Briefly: Lipopolysaccharide (LPS)-induced acute inflammation in mice, IL-6. The test is classed as in vivo. The note with it: plasma, 1.5 hours after 1 mg/kg LPS IP, BALB/c mice.
Text: as §1, §2, §3, §4
as §5, with “and recorded. […] The mice” for “and recorded. The mice of the control group were administered the same volume of solvent. The mice”, “and recorded. […]” for “and recorded.”
TNF-α, IL-6 and MCP-1 secretion amounts in the plasma were analyzed according to the analysis steps of Duoset® ELISA kit, and the steps are summarized as follows: […]

Read-outs that look alike come from different tables or passages of the source.

As a reminder, the IC50 is the concentration that inhibits the measured activity by half. Consider `CC(C)=CCOc1c2occc2cc2ccc(=O)oc12` [F5m, imperatorin], for which, in test [1], the “production of the inflammatory factor MCP-1” value is on record as “capable of significantly inhibiting the production of the inflammatory factor, MCP-1”. The IC50 in test [2] (Leukocyte, read-out: IL-17 inhibition IC50, peripheral blood leukocyte (PBL)) turned out to be 20.5 µg/mL; in test [4] (Mus musculus, read-out: IL-17 inhibition IC50, EL4 cells) it was 45 µg/mL. For the same compound, the “production of the inflammatory factor TNF-α” value in test [3] is listed as “capable of significantly inhibiting the production of the inflammatory factor, TNF-α”.

For `CC1(C)O[C@@H]1COc1c2occc2cc2ccc(=O)oc12` [F7m, prangenin], in test [2], the “IL-17 inhibition IC50, peripheral blood leukocyte (PBL)” value (“IL-17 inhibition IC50 … (PBL)” below) amounted to 28.7 µg/mL. Further, the “IL-17 inhibition IC50, EL4 cells” value in test [4] came out at 47.2 µg/mL.

For the compound `CC(C)=CCCC(C)=CCOc1c2occc2cc2ccc(=O)oc12` [F4m, 8-geranyloxypsoralen], in test [5] (concluded from HE-07-Fr4 (more than 80% of F4m), Table 10), the “survival rate of NZBWF1/J mice (in words)” value is listed as “capable of effectively improving the survival rate of NZBWF1/J mice”. Moreover, the “production of the inflammatory factor IL-6” value in test [6] is “capable of significantly inhibiting the production of the inflammatory factor, IL-6”. Also, the “production of the inflammatory factor MCP-1” value in test [1] is “capable of significantly inhibiting the production of the inflammatory factor, MCP-1”. For the same compound, the “IL-17 inhibition IC50 … (PBL)” value in test [2] amounted to 4.3 µg/mL. In addition, in test [3], the “production of the inflammatory factor TNF-α” value is given as “capable of significantly inhibiting the production of the inflammatory factor, TNF-α”. In test [4], the “IL-17 inhibition IC50, EL4 cells” value came to 15.9 µg/mL.

For the compound ζ-clausenamide [F6m], the “production of the inflammatory factor IL-6” value in test [6] was “capable of significantly inhibiting the production of the inflammatory factor, IL-6”. The “production of the inflammatory factor MCP-1” value in test [1] is “capable of significantly inhibiting the production of the inflammatory factor, MCP-1”. Besides, in test [2], the “IL-17 inhibition IC50 … (PBL)” value is 3.0 µg/mL. Also, the “IL-17 inhibition IC50, EL4 cells” value in test [4] stood at 5.1 µg/mL.

On to `COc1c(CC=C(C)C)c(C=O)cc2c1[nH]c1ccccc12` [F3m, indizoline], for which, in test [6], the “production of the inflammatory factor IL-6” value is given as “capable of significantly inhibiting the production of the inflammatory factor, IL-6”. In test [1], the “production of the inflammatory factor MCP-1” value is on record as “capable of significantly inhibiting the production of the inflammatory factor, MCP-1”. Also, in test [2], the “IL-17 inhibition IC50 … (PBL)” value came to 2.4 µg/mL. In test [4], the “IL-17 inhibition IC50, EL4 cells” value stood at 2.8 µg/mL.

Take `O=P1(N(CCCl)CCCl)NCCCO1` (centres unmarked) [cyclophosphamide]: the “Survival rate (%)” value is recorded as 100% in test [5] (Table 4 study); 100% in test [5] (Table 8 study); 100% in test [5] (Table 10 study, 12 weeks).
